From PubChem BioAssay AID1259407 (Chemical Carcinogenesis Research Information System (CCRIS), 2018)
Calls of active or inactive are those of the source. The rule behind the calls is not given here.

System: CCRIS mutagenicity, Ames/micronucleus/aberration tests
Assay: CCRIS mutagenicity studies
Settings: Test System: AMES SALMONELLA TYPHIMURIUM, Method: PREINCUBATION

## Nc1ccc(F)cc1F
Strain/Indicator: TA97, Metabolic Activation: HAMSTER, LIVER, S-9, AROCLOR 1254 (10%)
  mutagenic call: inactive; negative
Strain/Indicator: TA97, Metabolic Activation: HAMSTER, LIVER, S-9, AROCLOR 1254 (30%)
  mutagenic call: inactive; negative
Strain/Indicator: TA97, Metabolic Activation: NONE
  mutagenic call: inactive; negative
Strain/Indicator: TA97, Metabolic Activation: RAT, LIVER, S-9, AROCLOR 1254 (10%)
  mutagenic call: inactive; negative
Strain/Indicator: TA97, Metabolic Activation: RAT, LIVER, S-9, AROCLOR 1254 (30%)
  mutagenic call: inactive; negative
Strain/Indicator: TA98, Metabolic Activation: HAMSTER, LIVER, S-9, AROCLOR 1254 (10%)
  mutagenic call: inactive; negative
Strain/Indicator: TA98, Metabolic Activation: HAMSTER, LIVER, S-9, AROCLOR 1254 (30%)
  mutagenic call: active; positive
Strain/Indicator: TA98, Metabolic Activation: NONE
  mutagenic call: inactive; negative
Strain/Indicator: TA98, Metabolic Activation: RAT, LIVER, S-9, AROCLOR 1254 (10%)
  mutagenic call: inactive; negative
Strain/Indicator: TA98, Metabolic Activation: RAT, LIVER, S-9, AROCLOR 1254 (30%)
  mutagenic call: inactive; negative
Strain/Indicator: TA100, Metabolic Activation: HAMSTER, LIVER, S-9, AROCLOR 1254 (5 OR 10%)
  mutagenic call: inactive; negative
Strain/Indicator: TA100, Metabolic Activation: HAMSTER, LIVER, S-9, AROCLOR 1254 (30%)
  mutagenic call: active; positive
Strain/Indicator: TA100, Metabolic Activation: NONE
  mutagenic call: inactive; negative
Strain/Indicator: TA100, Metabolic Activation: RAT, LIVER, S-9, AROCLOR 1254 (5, 10 OR 30%)
  mutagenic call: inactive; negative
Strain/Indicator: TA1535, Metabolic Activation: HAMSTER, LIVER, S-9, AROCLOR 1254 (10%)
  mutagenic call: inactive; negative
Strain/Indicator: TA1535, Metabolic Activation: HAMSTER, LIVER, S-9, AROCLOR 1254 (30%)
  mutagenic call: inactive; negative
Strain/Indicator: TA1535, Metabolic Activation: NONE
  mutagenic call: inactive; negative
Strain/Indicator: TA1535, Metabolic Activation: RAT, LIVER, S-9, AROCLOR 1254 (10%)
  mutagenic call: inactive; negative
Strain/Indicator: TA1535, Metabolic Activation: RAT, LIVER, S-9, AROCLOR 1254 (30%)
  mutagenic call: inactive; negative
